Test results: patent EP3842803A1, “CXCL14 IN POLYCYSTIC OVARY SYNDROME” (Katholieke Universiteit Leuven, priority 2019, dated 2021)

Experiments:
[1] = test system: CXCL14 mRNA expression; test: CXCL14 transcript levels (qRT-PCR) in already differentiated SGBS adipocytes treated acutely (24h); assay type: cell-based, human; details: acute 24h treatment; spironolactone at 10 µM (Figure 3A)
Description: (§1) • Figure 1 • A. Baseline circulating CXCL14 concentrations in girls with polycystic ovary syndrome (PCOS, N= 52) and in healthy age-matched controls (N= 21). Data are mean + SEM. • B. Longitudinal results of CXCL14 serum concentrations in girls with PCOS who received an oral contraceptive (OC, white circles, N= 16) or low-dose spironolactone, pioglitazone and metformin (SPIOMET, black circles, N= 15). […] SGBS human pre-adipocytes were treated chronically (10 days) with pioglitazone, spironolactone or metformin alone (A) or in combination (B, C, D) at the indicated doses across the adipoipogeic differentiation process. • A, B. CXCL14 transcript levels are presented as means + SEM from 4-5 independent experiments, and are expressed relative to values from untreated control cells. • C. […] SGBS cells were treated acutely (24h, at the indicated doses) when already differentiated adipocytes.
(§2) Cell culture reagents and drugs were from Sigma.

[2] = test system: CXCL14 mRNA expression; test: cells; assay type: cell-based, human; details: for effect of addition to pioglitazone on pioglitazone induction of CXCL14 mRNA expression: added to pioglitazone, 10 days across differentiation (Figure 2B)
Description: as §1, §2

[3] = test system: CXCL14 protein; test: CXCL14 protein (ELISA) in cell culture medium of differentiating SGBS cells; assay type: cell-based, human; details: chronic treatment across differentiation; detectable only under pioglitazone treatment
Description: as §2

[4] = test system: CXCL14 protein; details: sgbs adipocytes, 24 h
Description: as §1, §2

increase of the CXCL14 protein levels released by adipocytes to the cell culture medium [4]	SMILES	CXCL14 mRNA expression on already differentiated human adipocytes [1]	effect of addition to pioglitazone on pioglitazone induction of CXCL14 mRNA expression [2]	CXCL14 protein in the cell culture medium of differentiating cells [3]	fold induction at 0.1 µM ([2]; Homo sapiens, SGBS, 240 h, read-out: induction of CXCL14 mRNA expression)
	CN(C)C(=N)N=C(N)N [metformin]	Neither pioglitazone nor metformin alone had any effect	did not modify		
	CCc1ccc(CCOc2ccc(CC3SC(=O)NC3=O)cc2)nc1 (stereo not shown) [pioglitazone]			0.185 ng/mL	~10
~8 fold	CC(=O)S[C@@H]1CC2=CC(=O)CC[C@]2(C)[C@H]2CC[C@@]3(C)[C@@H](CC[C@@]34CCC(=O)O4)[C@H]12 [spironolactone]	significant induction	reduced significantly		
